# Laboratory results published in patent publication US20250122207A1, “AP2 ASSOCIATED KINASE 1 INHIBITORS AND USES THEREOF” (Satellos Bioscience Inc., priority 2023, published 2025).
# Tests used:
# [1] = molecular target: T1, AAK1 (amino acids T27-A365) (Homo sapiens, UniProt Q2M2I8); assay: AAK1 pSENs assay; assay type: biochemical; settings: class symbols; read-out: AAK1 pSENs: EIC50
# T1 construct: against AAK1 (amino acids T27-A365); 6His (N, cleaved yes)
# Description: The recombinant proteins were independently expressed in Escherichia coli BL21(DE3) cells cultured in Luria-Bertani (LB) medium until OD600 reached 0.6-0.8, then cooled to 15° C. and supplemented with 0.5 mM isopropyl 1-thio-D-galactopyranoside (IPTG) induce protein expression 16 h. Cells were harvested and resuspended in lysis buffer (50 mM HEPES pH 7.5, 500 mM NaCl, 5 mM imidazole, 5% glycerol, 0.5 mM Tris (2-carboxyethyl) phosphine (TCEP), cOmplete Protease Inhibitor Tablet (Roche)) and lysed by microfludics high pressure homogenizer (UH-06, Union-Biotech). Proteins were purified using […] chromatography (His FF column, Bestchrom) and eluted stepwise in binding buffer with 20-300 mM imidazole. Removal of the hexahistidine tag was performed at 4° C. overnight using recombinant TEV protease and reacted with BirA to obtain the corresponding biotinylated-AAK1, BIKE or GAK proteins. Further separated in the reverse Strep column (Strep-Tactin® XT, IBA). The Biotin elution sample was collected containing untagged biotinylated protein was then purified by Ion-exchange chromatography (Mono Q 10/100 GL, Cytiva) and Size-exclusion chromatography (HiLoad 16/600 Superdex 200 pg, Cytiva). The pure protein was stored in a storage buffer 50 mM HEPES (pH 7.5), 300 mM NaCl, 5% glycerol at −80° C. Protein were characterized by SDS-PAGE, LC-MS and aSEC.
# This example describes one illustrative method for determining the IC50 of the compounds of the present invention against AAK1 (amino acids T27-A365). AAK1 protein was dissolved at 20 nM in 1× enzyme solution (50 mM HEPES pH7.5, 10 mM MgCl2, 1 mM DTT, 1% glycerol, 0.5 mM EGTA, 0.01% Briji35, 0.02% BSA) and 12.5 ul was incubated with 250 nl DMSO or 250 nl compound in DMSO at 25° C. for 15 min. The reaction was started by addition of 12.5 ul of 30 uM AQT0759 (Assayquant, CSKS-AQT0759B) and 70 uM ATP which were diluted in 1× substrate dilution buffer (50 mM HEPES pH7.5, 10 mM MgCl2, 1 mM DTT, 1% glycerol, 0.5 mM EGTA, 0.01% Briji35).
# AAK1 = AAK1 (Homo sapiens, UniProt Q2M2I8); assay: pAP2M1 cell-based assay (in-cell Western); settings: Hela cells co-transfected with AP2M1 and AAK1, 3 hr treatment; class symbols; read-out: AAK1 In-cell Western: IC50
# Text: pAP2M1 Cell-Based Assay (in-Cell Western):
# The plate was read on Licor Odyssey CLx imaging system (LICOR) to acquire fluorescence intensity at 700 channel and 800 channel.
# Data analysis: Fluorescence intensity at 700 channel served as internal standard and 800 channel were normalized with 700 channel.
# Chain of AAK1 (Q2M2I8 whole entry): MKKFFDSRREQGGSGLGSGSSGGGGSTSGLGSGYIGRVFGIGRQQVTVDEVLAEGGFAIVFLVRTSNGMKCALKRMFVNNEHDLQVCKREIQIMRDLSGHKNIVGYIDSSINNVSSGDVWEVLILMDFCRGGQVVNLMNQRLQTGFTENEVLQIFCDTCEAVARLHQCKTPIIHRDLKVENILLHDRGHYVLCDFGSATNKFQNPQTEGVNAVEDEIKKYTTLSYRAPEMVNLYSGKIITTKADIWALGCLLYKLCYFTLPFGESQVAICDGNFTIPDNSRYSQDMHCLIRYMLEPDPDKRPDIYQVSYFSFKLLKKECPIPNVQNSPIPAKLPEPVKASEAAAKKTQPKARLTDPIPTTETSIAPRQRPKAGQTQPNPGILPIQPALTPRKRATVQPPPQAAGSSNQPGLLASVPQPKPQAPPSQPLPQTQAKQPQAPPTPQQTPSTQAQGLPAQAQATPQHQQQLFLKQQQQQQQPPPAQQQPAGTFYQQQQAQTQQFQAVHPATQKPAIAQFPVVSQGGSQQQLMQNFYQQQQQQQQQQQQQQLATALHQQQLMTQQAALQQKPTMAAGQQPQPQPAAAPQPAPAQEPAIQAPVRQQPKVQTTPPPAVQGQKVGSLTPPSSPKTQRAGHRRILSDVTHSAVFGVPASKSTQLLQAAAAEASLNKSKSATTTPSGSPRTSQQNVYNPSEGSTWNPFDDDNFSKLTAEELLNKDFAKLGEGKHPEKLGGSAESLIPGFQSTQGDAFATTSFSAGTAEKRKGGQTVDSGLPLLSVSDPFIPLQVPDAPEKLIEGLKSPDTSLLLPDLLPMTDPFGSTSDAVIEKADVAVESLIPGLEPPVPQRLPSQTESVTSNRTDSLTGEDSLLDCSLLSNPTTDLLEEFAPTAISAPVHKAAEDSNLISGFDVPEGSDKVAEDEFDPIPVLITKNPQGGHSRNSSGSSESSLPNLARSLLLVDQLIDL
# T1 sequence (Q2M2I8 27-365): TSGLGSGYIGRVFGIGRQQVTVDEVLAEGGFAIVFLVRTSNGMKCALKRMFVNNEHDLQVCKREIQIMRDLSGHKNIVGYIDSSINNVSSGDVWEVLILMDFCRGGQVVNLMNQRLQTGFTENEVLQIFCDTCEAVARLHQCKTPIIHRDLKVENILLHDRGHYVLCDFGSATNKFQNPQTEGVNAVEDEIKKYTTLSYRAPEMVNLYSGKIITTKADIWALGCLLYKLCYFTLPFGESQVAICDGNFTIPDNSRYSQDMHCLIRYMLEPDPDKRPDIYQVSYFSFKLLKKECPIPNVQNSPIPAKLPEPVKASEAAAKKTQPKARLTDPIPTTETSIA
SMILES,IC50 [1] [nM],IC50 (AAK1) [nM]
"CC1(OC(=O)N2CCN(c3ccn4ncc(-c5cccnc5OC5CCC5)c4n3)CC2)COC1 [Compound I-17, (3-Methyloxetan-3-yl) 4-[3-[2-(cyclobutoxy)-3-pyridyl]pyrazolo[1,5-a]pyrimidin-5-yl]piperazine-1-carboxylate]",1 to 50,501 to 1500
"CC1(OC(=O)N2CCN(c3ccn4ncc(-c5cccnc5OCC5CCC5)c4n3)CC2)COC1 [Compound I-19, 3-Methyloxetan-3-yl 4-(3-(2-(cyclobutylmethoxy)pyridin-3-yl)pyrazolo[1,5-a]pyrimidin-5-yl)piperazine-1-carboxylate]",151 to 500,> 1500
"O=C1NCC[C@H]1OC(=O)N1CCN(c2ccn3ncc(-c4cccnc4OC4CC4)c3n2)CC1 [Compound I-23, [(3R)-2-oxopyrrolidin-3-yl]-4-[3-[2-(cyclopropoxy)-3-pyridyl]pyrazolo[1,5-a]pyrimidin-5-yl]piperazine-1-carboxylate]",51 to 150,> 1500
"O=C1NCC[C@@H]1OC(=O)N1CCN(c2ccn3ncc(-c4cccnc4OC4CC4)c3n2)CC1 [Compound I-24, [(3S)-2-Oxopyrrolidin-3-yl]-4-[3-[2-(cyclopropoxy)-3-pyridyl]pyrazolo[1,5-a]pyrimidin-5-yl]piperazine-1-carboxylate]",51 to 150,> 1500
"O=C(O[C@@H]1CC(=O)N(C2CCNCC2)C1)N1CCN(c2ccn3ncc(-c4cccnc4OC4CC4)c3n2)CC1 [Compound I-33, (R)-5-Oxo-1-(piperidin-4-yl)pyrrolidin-3-yl 4-(3-(2-cyclopropoxypyridin-3-yl)pyrazolo[1,5-a]pyrimidin-5-yl)piperazine-1-carboxylate]",> 1500,> 1500
"CN(CCN1C[C@@H](OC(=O)N2CCN(c3ccn4ncc(-c5cccnc5OC5CC5)c4n3)CC2)CC1=O)C(=O)OC(C)(C)C [Compound I-35, (S)-1-(2-((tert-butoxycarbonyl)(methyl)amino)ethyl)-5-oxopyrrolidin-3-yl-4-(3-(2-cyclopropoxypyridin-3-yl)pyrazolo[1,5-a]pyrimidin-5-yl)piperazine-1-carboxylate]",51 to 150,> 1500
"C[C@H]1CN(c2ccn3ncc(-c4cccnc4OC4CC4)c3n2)CCN1C(=O)O[C@@H]1CNC(=O)C1 [Compound I-40, [(3S)-5-Oxopyrrolidin-3-yl](2S)-4-[3-[2-(cyclopropoxy)-3-pyridyl]pyrazolo[1,5-a]pyrimidin-5-yl]-2-methyl-piperazine-1-carboxylate]",151 to 500,> 1500
"N#C[C@@H]1CN(c2ccn3ncc(-c4cccnc4OC4CC4)c3n2)CCN1C(=O)O[C@@H]1CNC(=O)C1 [Compound I-41, (S)-5-Oxopyrrolidin-3-yl (S)-2-cyano-4-(3-(2-cyclopropoxypyridin-3-yl)pyrazolo[1,5-a]pyrimidin-5-yl)piperazine-1-carboxylate]",151 to 500,> 1500
"O=C1C[C@H](OC(=O)N2CCN(c3ccn4ncc(-c5cccnc5OC5CC5)c4n3)C[C@H]2C(=O)O)CN1 [Compound I-41-4C, (S)-4-(3-(2-Cyclopropoxypyridin-3-yl)pyrazolo[1,5-a]pyrimidin-5-yl)-1-((((S)-5-oxopyrrolidin-3-yl)oxy)carbonyl)piperazine-2-carboxylic acid]",> 1500,> 1500
"COC(=O)[C@@H]1CN(c2ccn3ncc(-c4cccnc4OC4CC4)c3n2)CCN1C(=O)O[C@@H]1CNC(=O)C1 [Compound I-41-5, 2-Methyl 1-((S)-5-oxopyrrolidin-3-yl) (S)-4-(3-(2-cyclopropoxypyridin-3-yl)pyrazolo[1,5-a]pyrimidin-5-yl)piperazine-1,2-dicarboxylate]",151 to 500,> 1500
"NC(=O)[C@@H]1CN(c2ccn3ncc(-c4cccnc4OC4CC4)c3n2)CCN1C(=O)O[C@@H]1CNC(=O)C1 [Compound I-41-6, (S)-5-Oxopyrrolidin-3-yl-(S)-2-carbamoyl-4-(3-(2-cyclopropoxypyridin-3-yl)pyrazolo[1,5-a]pyrimidin-5-yl)piperazine-1-carboxylate]",151 to 500,> 1500
"CN1CC(Oc2ncccc2-c2cnn3ccc(N4CCN(C(=O)O[C@@H]5CNC(=O)C5)CC4)nc23)C1 [Compound I-44, (S)-5-Oxopyrrolidin-3-yl 4-(3-(2-((1-methylazetidin-3-yl)oxy)pyridin-3-yl)pyrazolo[1,5-a]pyrimidin-5-yl)piperazine-1-carboxylate]",> 1500,> 1500
"CC(C)Nc1ncccc1-c1cnn2ccc(N3CCN(C(=O)O[C@@H]4CNC(=O)C4)CC3)nc12 [Compound I-47, [(3S)-5-oxopyrrolidin-3-yl]4-[3-[2-(isopropylamino)-3-pyridyl]pyrazolo[1,5-a]pyrimidin-5-yl]piperazine-1-carboxylate]",> 1500,> 1500
"CC(C)(C)OC(=O)N1CC(Nc2ncccc2-c2cnn3ccc(N4CCN(C(=O)O[C@@H]5CNC(=O)C5)CC4)nc23)C1 [Compound I-48, [(3S)-5-oxopyrrolidin-3-yl]4-[3-[2-[(1-tert-butoxycarbonylazetidin-3-yl)amino]-3-pyridyl]pyrazolo[1,5-a]pyrimidin-5-yl]piperazine-1-carboxylate]",501 to 1500,> 1500
"O=C1C[C@H](OC(=O)N2CCN(c3ccn4ncc(-c5cccnc5NC5CNC5)c4n3)CC2)CN1 [Compound I-49, (S)-5-oxopyrrolidin-3-yl4-(3-(2-(azetidin-3-ylamino)pyridin-3-yl)pyrazolo[1,5-a]pyrimidin-5-yl)piperazine-1-carboxylate]",> 1500,> 1500
"CN(C)CCN1CC[C@@](C)(OC(=O)N2CCN(c3ccn4ncc(-c5cccnc5OC5CC5)c4n3)CC2)C1 [Compound I-53, (R)-1-(2-(dimethylamino)ethyl)-3-(methylpyrrolidin-3-yl)-4-(3-(2-cyclopropoxypyridin-3-yl)pyrazolo[1,5-a]pyrimidin-5-yl)piperazine-1-carboxylate]",1 to 50,151 to 500
"O=C1C[C@H](OC(=O)N[C@@H]2CCN(c3ccn4ncc(-c5cccnc5OC5CC5)c4n3)C2)CN1 [Compound I-54, [(3S)-5-oxopyrrolidin-3-yl]N-[(3R)-1-[3-[2-(cyclopropoxy)-3-pyridyl]pyrazolo[1,5-a]pyrimidin-5-yl]pyrrolidin-3-yl]carbamate]",501 to 1500,> 1500
"O=C1C[C@H](OC(=O)N[C@H]2CCN(c3ccn4ncc(-c5cccnc5OC5CC5)c4n3)C2)CN1 [Compound I-55, (S)-5-oxopyrrolidin-3-yl ((S)-1-(3-(2-cyclopropoxypyridin-3-yl)pyrazolo[1,5-a]pyrimidin-5-yl)pyrrolidin-3-yl)carbamate]",151 to 500,> 1500
"C[C@@]1(OC(=O)N[C@@H]2CCN(c3ccn4ncc(-c5cccnc5OC5CC5)c4n3)C2)CCNC1 [Compound I-56, (R)-3-methylpyrrolidin-3-yl ((R)-1-(3-(2-cyclopropoxypyridin-3-yl)pyrazolo[1,5-a]pyrimidin-5-yl)pyrrolidin-3-yl)carbamate]",151 to 500,> 1500
"O=C(O[C@H]1CO[C@H]2OCC[C@H]21)N1CCN(c2ccn3ncc(-c4ccncn4)c3n2)CC1 [Compound I-67, [(3aS,4R,6aR)-2,3,3a,4,5,6a-hexahydrofuro[2,3-b]furan-4-yl]4-(3-pyrimidin-4-ylpyrazolo[1,5-a]pyrimidin-5-yl)piperazine-1-carboxylate]",501 to 1500,> 1500
"O=C(O[C@H]1CO[C@H]2OCC[C@H]21)N1CCN(c2ccn3ncc(-c4ccccc4OC4CC4)c3n2)CC1 [Compound I-68, [(3aS,4R,6aR)-2,3,3a,4,5,6a-hexahydrofuro[2,3-b]furan-4-yl]4-[3-[2-(cyclopropoxy)phenyl]pyrazolo[1,5-a]pyrimidin-5-yl]piperazine-1-carboxylate]",51 to 150,501 to 1500
"COC(=O)N1CC(Oc2ncccc2-c2cnn3ccc(N4CCN(C(=O)O[C@@H]5CC(=O)N(C)C5)CC4)nc23)C1 [Compound I-83, [(3R)-1-methyl-5-oxo-pyrrolidin-3-yl]4-[3-[2-(1-methoxycarbonylazetidin-3-yl)oxy-3-pyridyl]pyrazolo[1,5-a]pyrimidin-5-yl]piperazine-1-carboxylate]",1 to 50,501 to 1500
